From patent publication US11034669B2, “Pyrrole and pyrazole compounds and methods of use thereof” (Nuvation Bio Inc., priority 2018, dated 2021) come the findings set out here.

The test system of one test is LNCaP-abl cells. Nature of the test: Cell proliferation assay, LNCaP-abl (CellTiter-Glo). As to conditions: three days. The class given is cell-based.
For a further test, the target named is T1, GR (Homo sapiens, UniProt P04150).
T1 sequence (P04150 1-777): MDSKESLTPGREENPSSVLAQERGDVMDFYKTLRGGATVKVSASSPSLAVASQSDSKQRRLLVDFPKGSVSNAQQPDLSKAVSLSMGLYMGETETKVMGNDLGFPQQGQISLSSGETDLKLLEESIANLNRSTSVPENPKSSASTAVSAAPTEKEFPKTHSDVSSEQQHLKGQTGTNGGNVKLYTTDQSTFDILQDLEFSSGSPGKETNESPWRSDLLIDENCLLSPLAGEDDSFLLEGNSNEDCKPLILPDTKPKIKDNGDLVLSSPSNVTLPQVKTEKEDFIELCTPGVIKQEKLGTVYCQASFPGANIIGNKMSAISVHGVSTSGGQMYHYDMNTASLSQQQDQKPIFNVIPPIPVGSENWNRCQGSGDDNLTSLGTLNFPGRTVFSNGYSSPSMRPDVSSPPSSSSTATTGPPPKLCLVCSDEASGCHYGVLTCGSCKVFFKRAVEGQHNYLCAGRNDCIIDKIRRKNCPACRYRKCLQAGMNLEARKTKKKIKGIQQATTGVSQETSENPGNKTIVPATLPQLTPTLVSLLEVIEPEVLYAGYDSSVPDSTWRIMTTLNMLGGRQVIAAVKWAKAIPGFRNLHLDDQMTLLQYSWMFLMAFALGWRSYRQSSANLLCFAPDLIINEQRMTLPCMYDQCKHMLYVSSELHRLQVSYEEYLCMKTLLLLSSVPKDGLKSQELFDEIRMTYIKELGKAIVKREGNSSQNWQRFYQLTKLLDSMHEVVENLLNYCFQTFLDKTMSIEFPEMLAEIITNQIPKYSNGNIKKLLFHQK
Put plainly: GR antagonist assay (GRE-LUC luciferase reporter, with 0.1 nM dexamethasone).

A further test addresses T2, Human AR (Homo sapiens, UniProt P10275).
T2 construct: expressed in transfected cells; host or cells: HEK-293 cells
T2 sequence (P10275 1-920): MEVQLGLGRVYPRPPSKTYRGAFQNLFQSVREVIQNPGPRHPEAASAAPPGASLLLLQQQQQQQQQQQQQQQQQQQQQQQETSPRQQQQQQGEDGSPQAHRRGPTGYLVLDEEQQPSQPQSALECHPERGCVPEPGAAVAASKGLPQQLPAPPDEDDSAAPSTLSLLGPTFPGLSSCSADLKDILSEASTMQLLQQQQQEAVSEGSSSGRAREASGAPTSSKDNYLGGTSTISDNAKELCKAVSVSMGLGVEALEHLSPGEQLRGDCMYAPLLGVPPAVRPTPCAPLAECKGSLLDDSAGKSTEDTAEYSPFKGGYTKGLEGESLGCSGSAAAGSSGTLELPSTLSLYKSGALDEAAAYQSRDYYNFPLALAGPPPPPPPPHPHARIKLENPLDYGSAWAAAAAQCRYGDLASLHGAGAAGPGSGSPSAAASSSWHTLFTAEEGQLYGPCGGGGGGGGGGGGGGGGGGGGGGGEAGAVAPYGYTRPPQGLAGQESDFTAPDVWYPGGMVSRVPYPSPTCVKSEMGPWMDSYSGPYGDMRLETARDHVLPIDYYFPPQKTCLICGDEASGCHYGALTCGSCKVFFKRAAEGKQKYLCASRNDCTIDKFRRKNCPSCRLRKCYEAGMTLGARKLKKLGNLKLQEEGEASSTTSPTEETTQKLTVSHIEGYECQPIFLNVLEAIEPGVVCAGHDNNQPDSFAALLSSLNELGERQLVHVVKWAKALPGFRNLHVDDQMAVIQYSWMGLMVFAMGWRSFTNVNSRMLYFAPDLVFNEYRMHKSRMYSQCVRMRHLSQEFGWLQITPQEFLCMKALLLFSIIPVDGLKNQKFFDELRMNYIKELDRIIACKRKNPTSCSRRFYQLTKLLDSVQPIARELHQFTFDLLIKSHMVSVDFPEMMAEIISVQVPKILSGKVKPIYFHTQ
Nature of the test: AR antagonist assay (GRE-LUC luciferase reporter, with 0.1 nM R1881). As to conditions: read-out: AR Antagonism IC50. The class given is cell-based. As to the method:
Human AR cDNA cloned into pCMV vector, GRE-LUC, and CMV-renilla-LUC were used to transfect cells. HEK-293 cells (ATCC) were plated at 120,000 cells per well of a 24 well plate in DME+5% csFBS (Fisher Scientific, Waltham, Mass.). The cells were transfected using Lipofectamine (Life Technologies, Carlsbad, Calif.) with 0.25 μg GRE-LUC, 0.010 μg CMV-LUC (renilla luciferase) and 25 ng of the AR. […] Luciferase assay was performed 48 hrs after transfection. Firefly luciferase assay values were normalized to renilla luciferase values and were graphed using graphpad prism software (La Jolla, Calif.).

Method for LNCaP-abl cells: LNCaP-abl (3,000 cells/well, received from Dr. Myles Brown, Dana Farber Cancer Institute), 22RV 1 (1,000 cells/well), LNCaP (5,000 cells/well), or COS (3,000 cells/well) cells were plated in 96 well plates in 50 μl RPMI+10% FBS (Fisher Scientific, Waltham, Mass.). LNCaP, COS, and 22RV 1 cells were obtained from ATCC. Cells were treated in RPMI+10% FBS with test articles, ranging from 1 nM to 10 μM. Three days later, viable cells (LNCaP-abl, 22RV 1, and COS) were measured by CellTiter-Glo assay (Promega, Madison, Wis.). For LNCaP cells, medium containing test article was changed after 3 days of treatment, and after an additional 3 days of culture, viable cells were measured by CellTiter-Glo assay.

As for `N#Cc1ccc(-c2ccn(-c3ccc(CNC(=O)c4ccccn4)c(F)c3)n2)cc1C(F)(F)F` [Compound 16], in the test on LNCaP-abl cells, the “cell proliferation, % of vehicle at 3 μM” value turned out to be 89% and the “cell proliferation, % of vehicle at 10 μM” value was 98%. At GR, the IC50 is greater than 10 µM. The half-inhibitory concentration (IC50) at Human AR was greater than 10000 nM.
`Cc1ncsc1C(=O)NCc1ccc(-n2ccc(-c3ccc(C#N)c(C(F)(F)F)c3)n2)cc1F` [Compound 15]: in the test on LNCaP-abl cells, the “cell proliferation, % of vehicle at 3 μM” value was 66% and the “cell proliferation, % of vehicle at 10 μM” value is given as 3%. At GR, this molecule returned an IC50 greater than 10 µM. Also, at Human AR, the half-inhibitory concentration (IC50) is 280 nM.
